How the values were obtained:
[1] = system: novel coronavirus (live coronavirus), vero cells; assay: In-vitro live virus neutralization experiment with serum of immunized mice (CPE method); format: in vivo, SARS-CoV-2; settings: Embodiment I: single peptide 100 μg + MF59 at Day 0, 14, 28, Balb/c mice, serum Day 35
Balb/c mice = assay: Polypeptide chip-based vaccine immunogenicity scoring system; format: in vivo; parameters: key to A2: whether the 95 percentile of the last sampling is increased compared with the end point: Y = rise; N = no rise; settings: for A: 95 percentile grouping number score / B: Mouse performance score: total score = 5
[2] = Embodiment III, polypeptide-KLH
[3] = Embodiment III, polypeptide-KLH, Mix1-10
[4] = Embodiment III, polypeptide-KLH, value of the whole mix
[5] = adjuvant AddaVax, 7 peptides co-immunized in mice
[6] = adjuvant Adju-Phos, 7 peptides co-immunized in mice
[7] = adjuvant Alhydrogel, 7 peptides co-immunized in mice
[8] = adjuvant Imjet Alumn, 7 peptides co-immunized in mice
[9] = adjuvant MA103A, 7 peptides co-immunized in mice
[10] = adjuvant MA103B, 7 peptides co-immunized in mice

## VYDPLQPEL (SARS-CoV-2) [SEQ ID NO:34]
[1]
  Neutralizing antibody positive rate (%): 20%
Balb/c mice; Embodiment II, Combination 1
  A2: whether the 95 percentile of the last sampling is increased compared with the end point: N
  B1: D 0-D 14 95 percentile rise in the number of mice: 5
  B2: D 0-D 21 95 percentile rise in the number of mice: 0
  B3: D 14-D 21 95 percentile rise in the number of mice: 0
  B4: D 21-D 28 95 percentile rise in the number of mice: 1
  A: 95 percentile grouping number score: 5
  B: Mouse performance score: 1.7
Balb/c mice; Embodiment II, Combination 1, A*3 + B*2 + C*1
  Total single peptide: 18.9
Balb/c mice; Embodiment II, mice immunized with Combination 1
  A1: difference between a highest median and a D 0 median (95 percentile): 0.21
Balb/c mice; [2]
  B1: D 0-D 14 95 percentile rise in the number of mice: 3
  B2: D 0-D 21 95 percentile rise in the number of mice: 3
  B3: D 14-D 21 95 percentile rise in the number of mice: 1
  B4: D 21-D 28 95 percentile rise in the number of mice: 0
  A: 95 percentile grouping number score: 3
  B: Mouse performance score: 1.7
Balb/c mice; [3]
  A1: difference between a highest median and a D 0 median (95 percentile): 0.08
  A2: whether the 95 percentile of the last sampling is increased compared with the end point: N
Balb/c mice; Embodiment III, polypeptide-KLH, A*3 + B*2 + C*1
  Total single peptide: 13.4
Balb/c mice; [4]
  C1: #A timing-sequence response peptide fragment set: 823
  C2: #B vaccine specificity peptide fragment set: 398
  C3: Intersection of A and B: 7
  C4: Percentage of the intersection in set B: 1.759
  C: Timing-sequence response and specificity score: 1
Balb/c mice; [5]
  1) 95 percentile grouping number A: 3.5
  1) 95 percentile grouping number A1: 0.05
  2) Mouse performance B: 2.4
  2) Mouse performance B1: 4
  2) Mouse performance B2: 4
  2) Mouse performance B3: 1
  3) Timing-sequence response and specificity C: 0
  3) Timing-sequence response and specificity C1: 237
  3) Timing-sequence response and specificity C2: 1244
  3) Timing-sequence response and specificity C3: 0
  3) Timing-sequence response and specificity C4: 0.000
  Total single peptide: 15.3
Balb/c mice; [6]
  1) 95 percentile grouping number A: 5
  1) 95 percentile grouping number A1: 0.08
  2) Mouse performance B: 2.5
  2) Mouse performance B1: 3
  2) Mouse performance B2: 4
  2) Mouse performance B3: 2
  3) Timing-sequence response and specificity C: 0
  3) Timing-sequence response and specificity C1: 203
  3) Timing-sequence response and specificity C2: 1244
  3) Timing-sequence response and specificity C3: 0
  3) Timing-sequence response and specificity C4: 0.000
  Total single peptide: 20
Balb/c mice; [7]
  1) 95 percentile grouping number A: 5
  1) 95 percentile grouping number A1: 0.06
  2) Mouse performance B: 2.6
  2) Mouse performance B1: 4
  2) Mouse performance B2: 3
  2) Mouse performance B3: 2
  3) Timing-sequence response and specificity C: 1
  3) Timing-sequence response and specificity C1: 123
  3) Timing-sequence response and specificity C2: 1244
  3) Timing-sequence response and specificity C3: 2
  3) Timing-sequence response and specificity C4: 0.161
  Total single peptide: 20.7
Balb/c mice; [8]
  1) 95 percentile grouping number A: 5
  1) 95 percentile grouping number A1: 0.11
  2) Mouse performance B: 2.1
  2) Mouse performance B1: 5
  2) Mouse performance B2: 3
  2) Mouse performance B3: 0
  3) Timing-sequence response and specificity C: 1
  3) Timing-sequence response and specificity C1: 100
  3) Timing-sequence response and specificity C2: 1244
  3) Timing-sequence response and specificity C3: 3
  3) Timing-sequence response and specificity C4: 0.241
  Total single peptide: 19.7
Balb/c mice; [9]
  1) 95 percentile grouping number A: 5
  1) 95 percentile grouping number A1: 0.115
  2) Mouse performance B: 2.5
  2) Mouse performance B1: 5
  2) Mouse performance B2: 5
  2) Mouse performance B3: 0
  3) Timing-sequence response and specificity C: 1
  3) Timing-sequence response and specificity C1: 260
  3) Timing-sequence response and specificity C2: 1244
  3) Timing-sequence response and specificity C3: 3
  3) Timing-sequence response and specificity C4: 0.241
  Total single peptide: 20.5
Balb/c mice; [10]
  1) 95 percentile grouping number A: 5
  1) 95 percentile grouping number A1: 0.095
  2) Mouse performance B: 4.2
  2) Mouse performance B1: 4
  2) Mouse performance B2: 5
  2) Mouse performance B3: 5
  3) Timing-sequence response and specificity C: 0
  3) Timing-sequence response and specificity C1: 153
  3) Timing-sequence response and specificity C2: 1244
  3) Timing-sequence response and specificity C3: 0
  3) Timing-sequence response and specificity C4: 0.000
  Total single peptide: 23.4

— patent US20230136600A1, “Method and device for screening antigen epitope polypeptide” (priority 2020, published 2023)
